According to patent US6569891B1, “Antihypertensive compound from Caesalpinia brasiliensis” (Brigham Young University, priority 2002, dated 2003):

Assays:
[1] = conversion of brazilin in hot water; assay type: physicochemical
[2] = system: hypertensive Sprague-Dawley rats; experiment: antihypertensive activity, sample in drinking water of hypertensive rats, tail cuff systolic blood pressure; assay type: in vivo; details: 100 μg/ml in drinking water, after 36 hours; for reduction in systolic blood pressure: tail cuff
Description: The crude extract and HPLC fractions prepared according to the procedure of Example 1 (with a preparative-scale (21.4×250 mm) column), were tested for antihypertensive activity by adding the sample to be tested at a concentration of 100 μg/ml to the drinking water of hypertensive Sprague-Dawley rats. After 36 hours, systolic blood pressures were measured with a Harvard tail cuff apparatus attached to a Beckman R511A recorder.

In the case of `Oc1ccc2c(c1)OC[C@]1(O)Cc3cc(O)c(O)cc3[C@H]21` [Brazilin, brazilin], the “stability in hot water” value [1] is reported as “slowly converted to haematoxylin”.
With `Oc1cc2c(cc1O)C13c4ccc(O)c(O)c4OCC1(C2)OC1(O)CC=C2CC4(O)COc5c(ccc(O)c5O)C4=C2C13` (single isomer, unassigned) [peak A] the “systolic blood pressure after treatment” value ([2]; brought into the normal range) was 110-120 mm Hg and the “reduction in systolic blood pressure” value [2] was “about 35%”.
In the case of `Oc1cc2c(cc1O)C1c3ccc(O)c(O)c3OCC1(O)C2` (single isomer, unassigned) [Peak B, haematoxylin], the “reduction in systolic blood pressure” value [2] is reported as about 12%.
